One block for each molecule: values may come before it.
Tests used:
ARNO = molecular target: T1, ARNO (Homo sapiens, UniProt Q99418); experiment: plate-based GST-GGA3 GAT binding nucleotide exchange assay, […] compound; assay type: biochemical
T1 construct: gene CYTH2; Sec7 domain, amino acids 51–253; with Arf1 (NΔ17HsArf1 or NΔ17PfArf1, GDP-loaded)

PfArfGAP1 = molecular target: T2, PfArfGAP1 (Plasmodium falciparum, UniProt Q8I4Y5); experiment: plate-based GST-GGA3 GAT binding GAP assay; confirmed by tryptophan fluorescence; assay type: biochemical
T2 construct: gene PF3D7_1244600; GAP domain, amino acids 1–161; with PfArf1 (NΔ17, GTP-loaded)

[1] = molecular target: ^NΔ17PfArf1 (His-tagged P. falciparum Arf1 minus the N-terminal 17 amino acids) (Plasmodium falciparum) (UniProt Q7KQL3)

- % inhibition at 50 μM (ARNO): 93
Molecule: SecinH3

- IC50 (PfArfGAP1): 4.7 µM
Molecule: CC1(C(=O)Nc2cccc3cccnc23)CCN1C(=O)CCC1CCCC1 (stereo not drawn) [Chem1099]

- half-maximal GAP activity (EC50): deactivation of 1 µM ^NΔ17PfArf1-GTP by three-fold serial dilutions (0.5–0.002 µM) of the GAP domain, read by the GST-GGA3^GAT binding assay [1]: 0.021 µM
Molecule: PfArfGAP1^GAP (putative GAP domain of P. falciparum ArfGAP1) (domain or fragment)

Reference: paper PMC7061341, “Detection of the in vitro modulation of Plasmodium falciparum Arf1 by Sec7 and ArfGAP domains using a colorimetric plate-based assay” (Scientific Reports, 2020)
